Reference: publication PMC5097156, “Potent and selective chemical probe of hypoxic signalling downstream of HIF-α hydroxylation via VHL inhibition” (Nature Communications, 2016)

What was measured:
Assay in all cases: biochemical
Design in all cases: Dundee MRC-PPU Express kinase screen, remaining kinase activity
Details in all cases: read-out: Mean % of remaining kinase activity (±sd)
NEK6 = NEK6 (Homo sapiens, UniProt Q9HC98)
CK2 = target: T1, CK2 (Homo sapiens, UniProt P68400)
T1 construct: gene CSNK2A1

MKK1 = target: T2, MKK1 (Homo sapiens, UniProt Q02750)
T2 construct: gene MAP2K1

p38a MAPK = target: T3, p38a MAPK (Homo sapiens, UniProt Q16539)
T3 construct: gene MAPK14

CAMK1 = CAMK1 (Homo sapiens, UniProt Q14012)
SmMLCK = target: T4, SmMLCK (Homo sapiens, UniProt Q15746)
T4 construct: gene MYLK; smooth muscle

CHK2 = target: T5, CHK2 (Homo sapiens, UniProt O96017)
T5 construct: gene CHEK2

BTK = BTK (Homo sapiens, UniProt Q06187)
MLK3 = target: T6, MLK3 (Homo sapiens, UniProt Q16584)
T6 construct: gene MAP3K11

TTK = TTK (Homo sapiens, UniProt P33981)
IRAK4 = IRAK4 (Homo sapiens, UniProt Q9NWZ3)
PAK4 = PAK4 (Homo sapiens, UniProt O96013)
LKB1 = target: T7, LKB1 (Homo sapiens, UniProt Q15831)
T7 construct: gene STK11

PKA = target: T8, PKA (Homo sapiens, UniProt P17612)
T8 construct: gene PRKACA

Aurora B = target: T9, Aurora B (Homo sapiens, UniProt Q96GD4)
T9 construct: gene AURKB

AMPK (hum) = target: T10, AMPK (hum) (Homo sapiens, UniProt Q13131)
T10 construct: gene PRKAA1

RSK1 = target: T11, RSK1 (Homo sapiens, UniProt Q15418)
T11 construct: gene RPS6KA1

PIM1 = PIM1 (Homo sapiens, UniProt P11309)
MARK3 = MARK3 (Homo sapiens, UniProt P27448)
IGF-1R = target: T12, IGF-1R (Homo sapiens, UniProt P08069)
T12 construct: gene IGF1R

EPH-A2 = target: T13, EPH-A2 (Homo sapiens, UniProt P29317)
T13 construct: gene EPHA2

PKCa = target: T14, PKCa (Homo sapiens, UniProt P17252)
T14 construct: gene PRKCA

TBK1 = TBK1 (Homo sapiens, UniProt Q9UHD2)
ROCK 2 = target: T15, ROCK 2 (Homo sapiens, UniProt O75116)
T15 construct: gene ROCK2

SRPK1 = SRPK1 (Homo sapiens, UniProt Q96SB4)
Src = Src (Homo sapiens, UniProt P12931)
PKD1 = target: T16, PKD1 (Homo sapiens, UniProt Q15139)
T16 construct: gene PRKD1

CK1δ = target: T17, CK1δ (Homo sapiens, UniProt P48730)
T17 construct: gene CSNK1D

T5 sequence (O96017 whole entry): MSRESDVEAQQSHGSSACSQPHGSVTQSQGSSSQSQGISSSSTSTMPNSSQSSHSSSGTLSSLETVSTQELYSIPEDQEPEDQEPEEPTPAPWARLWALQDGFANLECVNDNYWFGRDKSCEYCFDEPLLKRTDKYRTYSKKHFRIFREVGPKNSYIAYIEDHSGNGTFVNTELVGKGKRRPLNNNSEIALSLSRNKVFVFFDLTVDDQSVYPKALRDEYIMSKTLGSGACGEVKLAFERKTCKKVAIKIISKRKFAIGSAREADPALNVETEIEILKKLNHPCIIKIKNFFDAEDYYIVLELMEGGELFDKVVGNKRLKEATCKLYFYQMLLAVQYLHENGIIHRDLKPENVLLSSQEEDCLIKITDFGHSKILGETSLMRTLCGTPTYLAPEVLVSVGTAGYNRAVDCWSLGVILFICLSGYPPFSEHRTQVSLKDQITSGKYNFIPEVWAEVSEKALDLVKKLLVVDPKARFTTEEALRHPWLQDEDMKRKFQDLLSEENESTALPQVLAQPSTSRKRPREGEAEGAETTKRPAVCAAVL
T9 sequence (Q96GD4 whole entry): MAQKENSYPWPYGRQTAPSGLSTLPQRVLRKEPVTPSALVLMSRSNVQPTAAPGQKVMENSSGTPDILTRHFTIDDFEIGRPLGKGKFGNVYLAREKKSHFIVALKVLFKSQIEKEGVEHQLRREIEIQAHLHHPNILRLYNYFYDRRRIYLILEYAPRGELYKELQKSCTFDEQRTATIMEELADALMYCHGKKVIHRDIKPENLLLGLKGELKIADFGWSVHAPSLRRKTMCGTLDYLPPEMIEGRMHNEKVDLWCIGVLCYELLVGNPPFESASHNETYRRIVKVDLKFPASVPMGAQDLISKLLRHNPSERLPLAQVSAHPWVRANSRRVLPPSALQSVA
T16 sequence (Q15139 whole entry): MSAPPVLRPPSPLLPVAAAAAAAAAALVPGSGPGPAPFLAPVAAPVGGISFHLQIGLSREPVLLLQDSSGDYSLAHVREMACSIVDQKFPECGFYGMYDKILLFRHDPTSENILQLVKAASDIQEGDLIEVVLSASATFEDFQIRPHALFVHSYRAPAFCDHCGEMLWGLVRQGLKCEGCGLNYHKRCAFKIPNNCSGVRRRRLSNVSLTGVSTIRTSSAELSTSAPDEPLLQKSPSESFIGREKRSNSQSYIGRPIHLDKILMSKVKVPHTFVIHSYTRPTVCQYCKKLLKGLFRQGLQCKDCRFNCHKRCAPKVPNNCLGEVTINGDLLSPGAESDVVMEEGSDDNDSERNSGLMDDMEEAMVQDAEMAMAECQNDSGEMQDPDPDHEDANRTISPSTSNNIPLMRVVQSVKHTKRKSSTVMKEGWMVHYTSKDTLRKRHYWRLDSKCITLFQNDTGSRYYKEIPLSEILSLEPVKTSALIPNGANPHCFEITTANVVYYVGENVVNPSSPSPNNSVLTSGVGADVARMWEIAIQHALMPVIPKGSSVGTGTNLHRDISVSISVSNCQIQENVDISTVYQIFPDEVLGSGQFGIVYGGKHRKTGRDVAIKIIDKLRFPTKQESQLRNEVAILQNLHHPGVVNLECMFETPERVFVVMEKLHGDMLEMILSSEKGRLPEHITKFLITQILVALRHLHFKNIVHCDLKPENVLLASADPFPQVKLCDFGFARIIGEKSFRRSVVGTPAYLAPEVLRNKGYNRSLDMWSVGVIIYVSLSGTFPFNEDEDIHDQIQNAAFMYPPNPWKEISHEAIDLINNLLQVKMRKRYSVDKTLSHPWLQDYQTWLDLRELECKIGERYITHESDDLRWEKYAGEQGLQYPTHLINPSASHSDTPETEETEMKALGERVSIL
Chain of NEK6 (Q9HC98 whole entry): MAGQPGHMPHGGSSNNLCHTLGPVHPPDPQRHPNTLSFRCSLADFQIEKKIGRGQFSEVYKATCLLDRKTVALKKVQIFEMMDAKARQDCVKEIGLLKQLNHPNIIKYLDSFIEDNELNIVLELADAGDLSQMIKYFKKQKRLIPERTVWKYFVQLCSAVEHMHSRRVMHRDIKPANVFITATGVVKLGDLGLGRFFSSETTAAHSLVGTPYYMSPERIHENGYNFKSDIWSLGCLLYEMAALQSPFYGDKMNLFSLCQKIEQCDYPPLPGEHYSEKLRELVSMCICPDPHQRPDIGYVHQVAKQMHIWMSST
Chain of TBK1 (Q9UHD2 whole entry): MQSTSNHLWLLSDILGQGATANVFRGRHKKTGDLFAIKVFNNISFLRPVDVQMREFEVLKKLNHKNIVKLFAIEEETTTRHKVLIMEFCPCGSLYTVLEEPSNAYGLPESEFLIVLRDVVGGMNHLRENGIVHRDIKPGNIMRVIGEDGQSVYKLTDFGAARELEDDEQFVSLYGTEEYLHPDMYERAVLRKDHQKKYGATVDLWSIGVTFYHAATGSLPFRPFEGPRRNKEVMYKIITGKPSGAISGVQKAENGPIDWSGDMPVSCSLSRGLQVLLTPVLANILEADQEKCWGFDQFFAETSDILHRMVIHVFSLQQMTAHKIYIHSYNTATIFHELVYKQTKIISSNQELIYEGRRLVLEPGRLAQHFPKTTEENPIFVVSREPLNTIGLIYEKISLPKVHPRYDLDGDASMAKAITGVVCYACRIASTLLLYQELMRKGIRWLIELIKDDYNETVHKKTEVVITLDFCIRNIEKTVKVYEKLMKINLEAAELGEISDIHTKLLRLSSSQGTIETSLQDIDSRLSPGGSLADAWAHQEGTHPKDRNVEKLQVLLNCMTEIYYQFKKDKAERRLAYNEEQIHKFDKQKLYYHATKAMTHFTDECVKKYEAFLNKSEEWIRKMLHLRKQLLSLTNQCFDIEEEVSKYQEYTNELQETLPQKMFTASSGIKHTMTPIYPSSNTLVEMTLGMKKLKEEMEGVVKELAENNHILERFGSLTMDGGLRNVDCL
Chain of MARK3 (P27448 whole entry): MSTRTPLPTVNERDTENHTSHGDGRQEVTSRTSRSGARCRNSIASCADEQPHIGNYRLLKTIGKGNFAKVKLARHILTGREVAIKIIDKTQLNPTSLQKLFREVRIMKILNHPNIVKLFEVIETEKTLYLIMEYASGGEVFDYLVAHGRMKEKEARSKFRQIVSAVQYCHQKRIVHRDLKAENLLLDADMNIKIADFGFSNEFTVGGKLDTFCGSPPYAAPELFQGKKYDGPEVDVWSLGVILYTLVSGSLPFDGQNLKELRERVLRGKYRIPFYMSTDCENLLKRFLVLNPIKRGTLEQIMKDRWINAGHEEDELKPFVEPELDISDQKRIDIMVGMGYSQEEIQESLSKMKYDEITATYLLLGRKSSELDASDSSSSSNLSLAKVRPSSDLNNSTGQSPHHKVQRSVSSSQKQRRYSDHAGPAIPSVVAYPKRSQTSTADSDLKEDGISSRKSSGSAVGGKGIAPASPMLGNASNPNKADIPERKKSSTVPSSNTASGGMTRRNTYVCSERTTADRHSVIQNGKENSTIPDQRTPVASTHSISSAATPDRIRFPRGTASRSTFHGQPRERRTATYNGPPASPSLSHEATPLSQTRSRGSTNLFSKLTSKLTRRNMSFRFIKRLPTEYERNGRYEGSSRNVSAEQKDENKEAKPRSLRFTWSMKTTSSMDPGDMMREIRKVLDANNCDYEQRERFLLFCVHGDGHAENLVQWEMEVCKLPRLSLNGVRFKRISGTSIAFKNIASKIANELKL
Chain of PAK4 (O96013 whole entry): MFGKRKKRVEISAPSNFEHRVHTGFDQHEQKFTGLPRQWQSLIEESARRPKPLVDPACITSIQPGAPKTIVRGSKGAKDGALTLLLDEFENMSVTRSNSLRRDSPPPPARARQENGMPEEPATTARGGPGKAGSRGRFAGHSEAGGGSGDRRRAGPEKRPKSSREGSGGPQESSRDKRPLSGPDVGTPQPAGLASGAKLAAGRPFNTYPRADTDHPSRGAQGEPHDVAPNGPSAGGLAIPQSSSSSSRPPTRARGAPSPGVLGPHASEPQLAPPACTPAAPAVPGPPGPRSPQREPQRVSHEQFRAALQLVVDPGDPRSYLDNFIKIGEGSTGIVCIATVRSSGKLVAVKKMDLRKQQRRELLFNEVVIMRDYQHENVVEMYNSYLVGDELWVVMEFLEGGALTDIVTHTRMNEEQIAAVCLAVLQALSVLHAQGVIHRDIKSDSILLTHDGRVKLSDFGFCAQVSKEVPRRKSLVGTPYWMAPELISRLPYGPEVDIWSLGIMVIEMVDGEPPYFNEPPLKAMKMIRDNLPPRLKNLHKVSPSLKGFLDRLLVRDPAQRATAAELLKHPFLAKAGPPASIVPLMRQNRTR

## Cc1ncsc1-c1ccc(CNC(=O)[C@@H]2C[C@@H](O)CN2C(=O)[C@@H](NC(=O)C2(C#N)CC2)C(C)(C)C)cc1 [VH298]
NEK6
  remaining activity at 50 µM: 106%
CK2
  remaining activity at 50 µM: 116%
MKK1
  remaining activity at 50 µM: 85%
p38a MAPK
  remaining activity at 50 µM: 108%
CAMK1
  remaining activity at 50 µM: 81%
SmMLCK
  remaining activity at 50 µM: 105%
CHK2
  remaining activity at 50 µM: 93%
BTK
  remaining activity at 50 µM: 102%
MLK3
  remaining activity at 50 µM: 95%
TTK
  remaining activity at 50 µM: 97%
IRAK4
  remaining activity at 50 µM: 112%
PAK4
  remaining activity at 50 µM: 97%
LKB1
  remaining activity at 50 µM: 105%
PKA
  remaining activity at 50 µM: 68%
Aurora B
  remaining activity at 50 µM: 78%
AMPK (hum)
  remaining activity at 50 µM: 101%
RSK1
  remaining activity at 50 µM: 94%
PIM1
  remaining activity at 50 µM: 92%
MARK3
  remaining activity at 50 µM: 94%
IGF-1R
  remaining activity at 50 µM: 110%
EPH-A2
  remaining activity at 50 µM: 107%
PKCa
  remaining activity at 50 µM: 99%
TBK1
  remaining activity at 50 µM: 110%
ROCK 2
  remaining activity at 50 µM: 75%
SRPK1
  remaining activity at 50 µM: 101%
Src
  remaining activity at 50 µM: 112%
PKD1
  remaining activity at 50 µM: 108%
CK1δ
  remaining activity at 50 µM: 99%
